These results are taken from PMC3262960 (ACS Chemical Biology, 2011).

The conditions of assay [1]: animal models of RA, UC, and neuron degeneration; cited from earlier work.
The target in assay [2] is T1, PAD1 (Homo sapiens, UniProt Q9ULC6).
T1 sequence (Q9ULC6 1-663): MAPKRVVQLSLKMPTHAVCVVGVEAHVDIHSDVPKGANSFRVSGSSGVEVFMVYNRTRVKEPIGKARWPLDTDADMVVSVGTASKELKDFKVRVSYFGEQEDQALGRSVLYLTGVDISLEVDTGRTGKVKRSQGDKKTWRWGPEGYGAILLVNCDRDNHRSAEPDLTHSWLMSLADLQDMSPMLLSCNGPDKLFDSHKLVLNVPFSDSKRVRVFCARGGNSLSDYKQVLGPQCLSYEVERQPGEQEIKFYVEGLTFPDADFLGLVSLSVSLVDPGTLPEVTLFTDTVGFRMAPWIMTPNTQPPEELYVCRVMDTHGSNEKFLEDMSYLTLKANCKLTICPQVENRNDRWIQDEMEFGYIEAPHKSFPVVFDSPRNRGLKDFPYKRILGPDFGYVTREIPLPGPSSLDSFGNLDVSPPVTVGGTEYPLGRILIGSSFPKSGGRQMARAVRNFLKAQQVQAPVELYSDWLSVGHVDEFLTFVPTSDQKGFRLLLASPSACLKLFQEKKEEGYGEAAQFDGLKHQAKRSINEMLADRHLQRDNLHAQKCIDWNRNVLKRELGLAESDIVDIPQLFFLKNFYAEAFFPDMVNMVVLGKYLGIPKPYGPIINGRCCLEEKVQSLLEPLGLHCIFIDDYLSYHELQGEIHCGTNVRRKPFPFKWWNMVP
As to conditions: read-out: IC50 PAD1; first generation inhibitors; cited from earlier work.

The target of assay [3] is T2, PAD3 (Homo sapiens, UniProt Q9ULW8).
T2 sequence (Q9ULW8 1-664): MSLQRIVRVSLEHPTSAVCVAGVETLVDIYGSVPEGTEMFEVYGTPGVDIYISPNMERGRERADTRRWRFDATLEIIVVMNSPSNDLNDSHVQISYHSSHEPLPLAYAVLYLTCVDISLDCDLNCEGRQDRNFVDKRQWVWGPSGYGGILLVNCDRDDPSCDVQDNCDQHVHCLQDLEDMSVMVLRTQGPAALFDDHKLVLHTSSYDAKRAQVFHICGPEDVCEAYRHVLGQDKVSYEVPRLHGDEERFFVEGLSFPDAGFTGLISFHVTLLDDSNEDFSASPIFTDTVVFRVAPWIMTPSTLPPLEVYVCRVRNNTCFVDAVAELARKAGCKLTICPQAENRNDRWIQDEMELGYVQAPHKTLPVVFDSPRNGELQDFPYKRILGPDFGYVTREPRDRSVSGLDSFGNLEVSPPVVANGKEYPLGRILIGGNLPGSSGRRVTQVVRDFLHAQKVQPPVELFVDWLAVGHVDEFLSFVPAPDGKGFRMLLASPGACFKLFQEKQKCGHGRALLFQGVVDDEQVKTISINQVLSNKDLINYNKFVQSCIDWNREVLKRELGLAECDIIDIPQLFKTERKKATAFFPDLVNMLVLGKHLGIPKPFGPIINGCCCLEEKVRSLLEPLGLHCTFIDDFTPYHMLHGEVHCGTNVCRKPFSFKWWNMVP
The settings on record: read-out: IC50 PAD3; first generation inhibitors; cited from earlier work.

In another assay the test system is PAD4 Q346A mutant. Put plainly: IC50 with PAD4 Q346A mutant. The settings on record: relative to wild type PAD4.
The target of assay [4] is T2, PAD3. The assay can be described thus: PAD3 inhibition, IC50 determination. The assay is classed as biochemical. As to conditions: read-out: IC50 PAD3.
A further assay has as its system PAD4 R639Q mutant. The assay can be described thus: IC50 with PAD4 R639Q mutant. As to conditions: relative to wild type PAD4.
Assay [5] concerns the target T3, PAD4 (Homo sapiens, UniProt Q9UM07). The assay can be described thus: Substrate protection experiments. The assay is classed as biochemical. As to conditions: two different concentrations of substrate.
Assay [6] addresses T1, PAD1. The assay can be described thus: PAD1 inhibition, IC50 determination. The assay is classed as biochemical. As to conditions: read-out: IC50 PAD1.
In assay [7] the target is T4, PAD2 (Homo sapiens, UniProt Q9Y2J8). The assay can be described thus: PAD2 inhibition, IC50 determination. The settings on record: read-out: IC50 PAD2. It counts as biochemical.
The next assay deals with PAD4 R374Q mutant. Put plainly: IC50 with PAD4 R374Q mutant. As to conditions: relative to wild type PAD4.
Assay [8] has as its target T3, PAD4. Put plainly: Dialysis of PAD4•inactivator complex. The assay is classed as biochemical. The settings on record: excess inhibitor, 20 h of dialysis.
Assay [9] deals with T3, PAD4. The assay can be described thus: PAD4 inhibition, IC50 determination.
The target of assay [10] is T1, PAD1. The assay can be described thus: Substrate activity with PAD1.
The target in assay [11] is T3, PAD4. The assay can be described thus: Substrate activity with PAD4.
In assay [12] the target is T2, PAD3. The assay can be described thus: Substrate activity with PAD3.
In assay [13] the target is T4, PAD2. Put plainly: Substrate activity with PAD2.

Like-named read-outs stand apart in the source and are kept apart here. Bounds are passed on as bounds.

T3 sequence (Q9UM07 whole entry): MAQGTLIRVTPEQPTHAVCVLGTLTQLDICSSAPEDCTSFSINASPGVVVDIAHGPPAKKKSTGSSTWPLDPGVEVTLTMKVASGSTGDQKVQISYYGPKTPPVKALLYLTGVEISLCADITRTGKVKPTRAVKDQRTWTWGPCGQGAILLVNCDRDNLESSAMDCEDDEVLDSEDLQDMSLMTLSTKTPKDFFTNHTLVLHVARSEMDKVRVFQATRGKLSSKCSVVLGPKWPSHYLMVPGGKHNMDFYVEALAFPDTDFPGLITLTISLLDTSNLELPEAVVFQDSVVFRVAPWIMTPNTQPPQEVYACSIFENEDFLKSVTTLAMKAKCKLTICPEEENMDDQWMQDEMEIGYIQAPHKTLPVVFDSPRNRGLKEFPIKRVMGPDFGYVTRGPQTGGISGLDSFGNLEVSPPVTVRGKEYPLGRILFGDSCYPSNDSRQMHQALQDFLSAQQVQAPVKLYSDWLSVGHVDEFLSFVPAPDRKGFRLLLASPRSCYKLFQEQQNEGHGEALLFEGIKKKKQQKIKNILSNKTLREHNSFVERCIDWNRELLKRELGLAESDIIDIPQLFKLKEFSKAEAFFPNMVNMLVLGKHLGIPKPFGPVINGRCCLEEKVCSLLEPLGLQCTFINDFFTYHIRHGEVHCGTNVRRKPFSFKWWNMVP
T4 sequence (Q9Y2J8 whole entry): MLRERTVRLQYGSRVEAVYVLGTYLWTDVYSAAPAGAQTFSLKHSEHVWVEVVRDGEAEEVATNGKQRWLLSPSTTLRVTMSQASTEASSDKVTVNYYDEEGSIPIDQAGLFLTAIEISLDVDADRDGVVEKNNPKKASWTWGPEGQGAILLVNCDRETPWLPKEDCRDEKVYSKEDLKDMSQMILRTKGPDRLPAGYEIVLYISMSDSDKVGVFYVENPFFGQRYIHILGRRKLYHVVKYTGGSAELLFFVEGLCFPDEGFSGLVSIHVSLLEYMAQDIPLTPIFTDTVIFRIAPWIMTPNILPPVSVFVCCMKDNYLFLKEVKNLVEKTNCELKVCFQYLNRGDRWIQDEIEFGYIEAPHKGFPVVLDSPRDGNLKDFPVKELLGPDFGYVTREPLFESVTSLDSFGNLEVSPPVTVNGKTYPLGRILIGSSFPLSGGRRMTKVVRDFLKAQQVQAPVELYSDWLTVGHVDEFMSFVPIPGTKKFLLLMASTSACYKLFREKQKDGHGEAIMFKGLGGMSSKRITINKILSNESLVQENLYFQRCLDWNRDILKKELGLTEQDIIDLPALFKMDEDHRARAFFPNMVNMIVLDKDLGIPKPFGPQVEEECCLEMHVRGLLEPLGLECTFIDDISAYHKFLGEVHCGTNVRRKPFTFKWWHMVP

In the case of `N=C(CCl)NCCC[C@H](NC(=O)c1ccccc1)C(N)=O` [Cl-amidine, N-alpha-benzoyl-N5-(2-chloro-1-iminoethyl)-L-ornithine amide], the “effect on disease severity in animal models” value in assay [1] is “reduces disease severity”.
Usually IC50 stands for the concentration needed to halve the response being measured. For the compound `NC(=O)[C@H](CCCN=C(N)CF)NC(=O)c1ccccc1` [F-amidine], the figures for the 50% inhibitory concentration (IC50) on PAD1 [2] and on PAD3 [3] were 30 ± 1.3 µM and ≥ 350 µM, respectively.
Consider `CC(=O)N[C@H](C(=O)N[C@@H](CC(=O)O)C(=O)N[C@@H](CCCN=C(N)CF)C(N)=O)[C@@H](C)O` [TDFA, Thr-Asp-F-amidine], for which, in the assay with PAD4 Q346A mutant, the “increase of IC50 with Q346A mutant” value was 1.9 fold. The IC50 at PAD3 [4] stood at 26 ± 7.4 µM; at PAD1 [6], 8.5 ± 0.8 µM; at PAD2 [7], 71 ± 4.4 µM; at PAD4 [9] (read-out: IC50 PAD4), 2.3 ± 0.2 µM. Besides, the “increase of IC50 with R639Q mutant” value in the assay on PAD4 R639Q mutant was found to be 2.9 fold. The “rates of inactivation at the higher concentration of substrate” value on PAD4 [5] was “considerably lower”. In the assay on PAD4 R374Q mutant, the “increase of IC50 with R374Q mutant” value worked out at 5.2 fold. Also, at PAD4 [8], the “recovery of PAD4 activity after dialysis” value was “no recovery of activity”. Moreover, the “selectivity for PAD4 relative to the other PADs, based on IC50 values” on PAD4 [9] is reported as ≥ 4 fold. Moreover, the “enhancement in potency relative to F-amidine (IC50)” value on PAD4 [9] (PAD4) is on record as ~ 10 fold.
In the case of “Ac-Threonine-Aspartate-Arginine-NH2 [Ac-TDR-NH2]”, the “substrate quality for PAD1” value at PAD1 [10] is given as “excellent substrate”. For the same compound, the “substrate quality for PAD4” value at PAD4 [11] is “excellent substrate”. Also, the “substrate quality for PAD3” value at PAD3 [12] is on record as “relatively poor”. For the same compound, the “substrate quality for PAD2” value at PAD2 [13] is given as “relatively poor”.
